Values quoted from earlier work in patent US20160286792A1, “METHOD AND SYSTEM FOR PEST CONTROL” (priority 2013, published 2016).
Read-outs that look alike come from different tables or passages of the source.

Columns and labels:
[1] = aqueous, at 25 degrees

In the case of calcium sulphate dihydrate [gypsum], the “concentration of saturated solution” value [1] is given as 2000 to 2500 µg/mL.

In the case of `O=[N+]([O-])NC1=NCCN1Cc1ccc(Cl)nc1` [Imidacloprid], the length of protection (termites; applied at 0.25% concentration) is given as “up to 3 years” and the toxicity to humans (humans) is given as “low to medium toxicity”.

For `Cc1c(COC(=O)[C@@H]2[C@H](/C=C(\Cl)C(F)(F)F)C2(C)C)cccc1-c1ccccc1` (racemic) [Bifenthrin], the length of protection (termites; applied at 0.05% concentration) is listed as 10 years, the length of protection (termites; applied at 0.1% concentration) is listed as “at least 10 years” and the length of protection (termites; applied at 0.25% concentration) is listed as 3 years.

For `CCOP(=S)(OCC)Oc1nc(Cl)c(Cl)cc1Cl` [chlorpyrifos, Chlorpyrifos], the length of protection (termites; concentration varies depending on the brand) is listed as “up to 5 years”.
